Test results as given in patent US10231967B2, “Compounds and their use as BACE inhibitors” (ASTRAZENECA AB, priority 2010, dated 2019).

test system: sAPPβ release in SH-SY5Y cells; test: sAPPβ release assay; type: cell-based; conditions: Homo sapiens, SH-SY5Y, 17 h, compounds incubated 17 h, MSD detection
Method: Thaw cells and seed at a conc. of around 10000 cells/well in DMEM/F-12 with Glutamax, 10% FCS and 1% non-essential amino acids to a 384-well tissue culture treated plate, 100 μL cell susp/well. […] The cell medium was removed, followed by addition of 30 μL compound diluted in DMEM/F-12 with Glutamax, 10% FCS, 1% non-essential amino acids and 1% PeSt to a final conc. of 1% DMSO. The compounds were incubated with the cells for 17 h (overnight) at 37° C., 5% CO2. Meso Scale Discovery (MSD) plates were used for the detection of sAPPβ release. MSD sAPPβ plates were blocked in 1% BSA in Tris wash buffer (40 μL/well) for 1 h on shake at r.t. and washed 1 time in Tris wash buffer (40 μL/well). 20 μL of medium was transferred to the pre-blocked and washed MSD sAPPβ microplates, and the cell plates were further used in an ATP assay to measure cytotoxicity. The MSD plates were incubated with shaking at r.t. for 2 h and the media discarded. 10 μL detection antibody was added (1 nM) per well followed by incubation with shaking at r.t. for 2 h and then discarded. 40 μL Read Buffer was added per well and the plates were read in a SECTOR Imager.

Structure (SMILES) | IC50 [nM]
COC1CCC2(CC1)Cc1ccc(Br)cc1[C@@]21N=C(C)C(N)=N1 (single isomer, unassigned) [Example 19 Isomer 1] | 18
CC1=NC2(CC(C3CCCOC3)Oc3ccc(Br)cc32)N=C1N (single isomer, unassigned) [Example 47 Isomer 2, 6-Bromo-5′-methyl-2-(tetrahydro-2H-pyran-3-yl)spiro[chromane-4,2′-imidazole]-4′-amine] | 657
CC1=NC2(CCOc3ccc(NC(=O)c4ccc(Cl)cn4)cc32)N=C1N (stereo not drawn) [Example 13a, N-(4′-Amino-5′-methylspiro[chroman-4,2′-imidazole]-6-yl)-5-chloropicolinamide] | 501
CC1=NC2(CCOc3ccc(NC(=O)c4ncc(Cl)cc4Cl)cc32)N=C1N (stereo not drawn) [Example 13i, N-(4′-Amino-5′-methylspiro[chroman-4,2′-imidazole]-6-yl)-3,5-dichloropicolinamide] | 160

same assay, conditions: Homo sapiens, compounds incubated 17 h, MSD detection

Structure (SMILES) | IC50 [nM]
CC1=N[C@]2(N=C1N)c1cc(-c3cc(F)cc(C#N)c3)ccc1C[C@]21CC[C@@H](OC(F)F)CC1 (racemic) [Example 105, 3-[(1r,4r)-4″-Amino-4-(difluoromethoxy)-5″-methyl-3′H-dispiro[cyclohexane-1,2′-indene-1′,2″-imidazol]-6′-yl]-5-fluorobenzonitrile] | 9.7
COc1cc(C#N)cc(-c2ccc3c(c2)[C@@]2(N=C(C)C(N)=N2)[C@]2(CC[C@H](OC(F)F)CC2)C3)c1 (racemic) [Example 106, 3-[(1r,4r)-4″-Amino-4-(difluoromethoxy)-5″-methyl-3′H-dispiro[cyclohexane-1,2′-indene-1′,2″-imidazol]-6′-yl]-5-methoxybenzonitrile] | 1.1
COc1cc(C#N)cc(-c2ccc3c(c2)[C@@]2(N=C(C)C(N)=N2)[C@]2(CC[C@H](OC)CC2)C3)c1 (single isomer, unassigned) [Example 92 Isomer 1] | 0.27
CC1=NC2(CCOc3ccc(-c4cc(Cl)cc(Cl)c4)cc32)N=C1N (stereo not drawn) [Example 1, 6-(3,5-Dichlorophenyl)-5′-methylspiro[chroman-4,2′-imidazol]-4′-amine] | 587
CC1=NC2(CCOc3ccc(-c4cncc(Cl)c4)cc32)N=C1N (stereo not drawn) [Example 2, 6-(5-Chloropyridin-3-yl)-5′-methylspiro[chroman-4,2′-imidazol]-4′-amine] | 941
CC1=NC2(CCOc3ccc(-c4cc(F)cc(F)c4)cc32)N=C1N (stereo not drawn) [Example 3, 6-(3,5-Difluorophenyl)-5′-methylspiro[chroman-4,2′-imidazol]-4′-amine] | 2880
CC1=NC2(CCOc3ccc(NC(=O)c4ccc(C(F)(F)F)cn4)cc32)N=C1N (stereo not drawn) [Example 13c, N-(4′-Amino-5′-methylspiro[chroman-4,2′-imidazole]-6-yl)-5-(trifluoromethyl)picolinamide] | 463
CC#CCOc1ccc(C(=O)Nc2ccc3c(c2)C2(CCO3)N=C(C)C(N)=N2)nc1 (stereo not drawn) [Example 13d, N-(4′-amino-5′-methylspiro[chroman-4,2′-imidazole]-6-yl)-5-(but-2-ynyloxy)picolinamide] | 239
CC#CCOc1cnc(C(=O)Nc2ccc3c(c2)C2(CCO3)N=C(C)C(N)=N2)cn1 (stereo not drawn) [Example 13e, N-(4′-Amino-5′-methylspiro[chroman-4,2′-imidazole]-6-yl)-5-(but-2-ynyloxy)pyrazine-2-carboxamide] | 106
CC1=NC2(N=C1N)c1cc(Br)ccc1CC21CCC(OC(F)F)CC1 (stereo not drawn) [Example 15, 6′-Bromo-4-(difluoromethoxy)-5″-methyl-3′H-dispiro[cyclohexane-1,2′-indene-1′,2″-imidazol]-4″-amine] | 46
CC#Cc1ccnc(-c2ccc3c(c2)C2(N=C(C)C(N)=N2)[C@]2(CC[C@H](OC)CC2)C3)c1 (stereo partly drawn) [Example 20b, (1r,4r)-4-Methoxy-5″-methyl-6′-[4-(prop-1-yn-1-yl)pyridin-2-yl]-3′H-dispiro[cyclohexane-1,2′-indene-1′,2″-imidazol]-4″-amine] | 0.78
